Laboratory results: US6423706B1, “Antimicrobial locks comprising taurinamide derivatives and carboxylic acids and/or salts thereof” (Biolink Corporation, priority 1998, dated 2002)
Where two headings read alike, the source gives them in different places.

Legend:
[1] = system: S. epidermis; conditions: cited from earlier work
[2] = system: Candida albicans; conditions: oral isolate, human buccal epithelial cells; concentration dependent; cited from earlier work
[3] = system: E. coli; conditions: urine isolate, human uroepithelial cells; concentration dependent; cited from earlier work
[4] = system: Staphylococcus Aureus (VISA, MRSA); conditions: pH 7.0 to pH 5.0; cited from earlier work
[5] = system: whole blood; test: Clotting of whole pig blood mixed with taurolidine solution with or without ACD-A; conditions: pig blood filled to 30 mL, inspected after 30 minutes
Experimental: A 0.5% solution of taurolidine in Ringer-lactate solution (Thomae, Biberach, Germany) was introduced into each of four polyethylene bottles having a 30 mL volume. Filling volumes were 5, 10, and 15 mL. One bottle was filled with 5 mL of the taurolidine solution and 2 mL ACD-A (Fresenius, Bad Homburg, Germany) solution. ACD-A solution is used for the conservation of whole blood and contains per liter: 22.0 grams of sodium citrate dihydrate, 7.3 grams of citric acid and 34.5 grams of glucose monohydrate.
Blood was collected at the slaughter house from a female pig directly from the slaughter wound into the containers that were then filled up to the 30 mL level. The containers were capped and gently moved to mix blood with the solution. The containers were inspected after 30 minutes. Blood in the containers containing only taurolidine was clotted, but the blood in the container containing the mixture of taurolidine and ACD-A was not clotted.

[6] = system: B. fragilis; conditions: 0.2 mL of 20% solution in 5% polyvinyl pyrrolidone intravenous; B. fragilis intraperitoneal; cited from earlier work
[7] = clinical and bacteriologic outcomes, endotoxemia, organ failure, 28-day mortality; cited from earlier work
[8] = Long term stability of taurolidine in solution; type: physicochemical; conditions: citric acid and sodium citrate buffer, compared with PVP solutions
From the text: In addition, citric acid is a known antioxidant. The buffer system created by adjustment of pH using sodium hydroxide also resists changes in the pH due to the oxidation of formaldehyde to formic acid.

[9] = system: E. coli; conditions: 0.2 mL of 20% solution in 5% polyvinyl pyrrolidone intravenous; E. coli intraperitoneal; cited from earlier work
[10] = mice; cited from earlier work
[11] = mouse, in vivo; cited from earlier work

O=C(O)CN(CCN(CC(=O)O)CC(=O)O)CC(=O)O [disodium EDTA, ethylenediaminetetraacetic acid]
Bactericidal concentration ([1]; initial inoculum 10^3 CFU per mL, in 24 hours): 20 mg/mL

heparin
Inhibition of growth ([1]; isolate from catheter of infected patient): does not inhibit the growth

[H]/N=C(\N/C(=N/[H])NCCCCCCNC(=N)NC(=N)Nc1ccc(Cl)cc1)Nc1ccc(Cl)cc1 [chlorhexidine]
Anti-adherence activity [2]: significant
Anti-adherence activity [3]: significant

povidone-iodine
Anti-adherence activity [2]: significant
Anti-adherence activity [3]: significant

O=S1(=O)CCN(CN2CCS(=O)(=O)NC2)CN1 [taurolidine, bis-(1,1-dioxo-perhydroxy-1,2,4-thiadiazin-4-yl)methane]
Dependence of activity on pH [4]: increases with decreasing pH
Blood clotting on inspection [5]: clotted
Mortality rate [6]: very significantly reduce the mortality rate
Therapeutic effect on outcome [7]: no beneficial therapeutic effect
Stability of taurolidine in solution [8]: increases the stability
Mortality rate [9]: very significantly reduce the mortality rate
Taurolidine solubility believed reachable (additional citric acid, without polyol or PVP): 5%
Taurolidine in solution achieved (approximately 2.6% by weight citric acid, no PVP or polyol, pH 5.2 to 5.3): 4.0 weight percent
Anti-adherence activity [2]: significant
Intraperitoneal LD50 [10]: ~1500 mg/kg
Anti-adherence activity [3]: significant
Teratogenicity [11]: non-teratogenic

CN[C@H](CC(C)C)C(=O)N[C@H]1C(=O)N[C@@H](CC(N)=O)C(=O)N[C@H]2C(=O)N[C@H]3C(=O)N[C@H](C(=O)N[C@H](C(=O)O)c4cc(O)cc(O)c4-c4cc3ccc4O)[C@H](O)c3ccc(c(Cl)c3)Oc3cc2cc(c3O[C@@H]2O[C@H](CO)[C@@H](O)[C@H](O)[C@H]2O[C@H]2C[C@](C)(N)[C@H](O)[C@H](C)O2)Oc2ccc(cc2Cl)[C@H]1O [Vancomycin]
Bactericidal concentration ([1]; initial inocula 10^3 CFU/mL): 0.0067 mg/mL
